Test [1] addresses T1, Hexokinase-1 (Homo sapiens, UniProt P19367).
T1 sequence (P19367 whole entry): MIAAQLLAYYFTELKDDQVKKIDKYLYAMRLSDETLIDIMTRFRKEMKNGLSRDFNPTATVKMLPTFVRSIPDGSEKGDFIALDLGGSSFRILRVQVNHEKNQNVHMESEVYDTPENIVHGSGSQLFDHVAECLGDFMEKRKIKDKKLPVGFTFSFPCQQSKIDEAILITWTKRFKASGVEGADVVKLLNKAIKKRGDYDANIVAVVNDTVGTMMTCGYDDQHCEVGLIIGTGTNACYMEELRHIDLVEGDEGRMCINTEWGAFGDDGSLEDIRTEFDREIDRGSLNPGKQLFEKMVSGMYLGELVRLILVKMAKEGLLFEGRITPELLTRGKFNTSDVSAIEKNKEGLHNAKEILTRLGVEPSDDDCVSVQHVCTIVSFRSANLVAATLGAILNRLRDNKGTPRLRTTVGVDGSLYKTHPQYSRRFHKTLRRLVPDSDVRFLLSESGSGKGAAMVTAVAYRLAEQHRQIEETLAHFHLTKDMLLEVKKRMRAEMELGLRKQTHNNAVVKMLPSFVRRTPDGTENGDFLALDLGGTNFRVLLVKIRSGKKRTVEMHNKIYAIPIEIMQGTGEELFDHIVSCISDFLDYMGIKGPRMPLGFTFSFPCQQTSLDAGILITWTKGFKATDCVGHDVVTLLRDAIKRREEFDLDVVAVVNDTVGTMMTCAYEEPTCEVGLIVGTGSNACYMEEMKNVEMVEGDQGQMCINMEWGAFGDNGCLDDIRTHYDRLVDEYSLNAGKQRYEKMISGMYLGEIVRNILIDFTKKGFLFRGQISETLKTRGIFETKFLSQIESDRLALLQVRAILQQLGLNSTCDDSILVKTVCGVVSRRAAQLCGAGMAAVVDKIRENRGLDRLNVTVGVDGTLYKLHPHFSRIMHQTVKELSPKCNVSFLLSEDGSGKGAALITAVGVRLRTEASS
In words: SAR analysis of small molecule inhibitors of hexokinase domain containing I (HKDC1) in the hexokinase 1 selectivity assay. [Related pubchem assays (depositor defined):AID493160, AID493190]. In kind it is functional.

Test [2] concerns the target T2, Hexokinase HKDC1 (Homo sapiens, UniProt Q2TB90).
T2 sequence (Q2TB90 whole entry): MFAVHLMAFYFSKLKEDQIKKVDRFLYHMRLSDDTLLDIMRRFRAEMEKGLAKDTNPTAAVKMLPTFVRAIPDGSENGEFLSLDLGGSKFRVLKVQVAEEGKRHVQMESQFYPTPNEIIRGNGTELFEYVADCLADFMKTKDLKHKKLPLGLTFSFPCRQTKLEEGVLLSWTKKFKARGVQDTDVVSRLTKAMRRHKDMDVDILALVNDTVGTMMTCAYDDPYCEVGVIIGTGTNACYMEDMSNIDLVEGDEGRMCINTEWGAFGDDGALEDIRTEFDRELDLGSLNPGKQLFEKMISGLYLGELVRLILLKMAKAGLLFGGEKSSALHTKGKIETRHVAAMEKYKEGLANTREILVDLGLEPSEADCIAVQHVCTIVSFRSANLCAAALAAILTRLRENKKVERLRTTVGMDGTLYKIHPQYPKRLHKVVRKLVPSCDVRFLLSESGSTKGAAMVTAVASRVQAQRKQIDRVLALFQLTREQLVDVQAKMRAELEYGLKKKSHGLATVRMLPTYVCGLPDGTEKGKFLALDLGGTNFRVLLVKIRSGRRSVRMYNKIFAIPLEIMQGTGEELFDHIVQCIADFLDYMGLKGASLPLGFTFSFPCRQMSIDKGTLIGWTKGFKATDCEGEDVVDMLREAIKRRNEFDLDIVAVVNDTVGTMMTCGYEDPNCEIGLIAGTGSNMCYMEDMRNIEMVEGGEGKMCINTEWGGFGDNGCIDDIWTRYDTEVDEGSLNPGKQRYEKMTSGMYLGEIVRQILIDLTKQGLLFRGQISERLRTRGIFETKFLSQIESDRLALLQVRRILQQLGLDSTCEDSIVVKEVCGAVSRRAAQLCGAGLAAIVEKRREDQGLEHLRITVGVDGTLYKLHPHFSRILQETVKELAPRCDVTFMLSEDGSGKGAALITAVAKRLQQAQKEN
In words: SAR analysis of small molecule inhibitors of hexokinase domain containing I (HKDC1). [Related pubchem assays (depositor defined):AID493160, AID493190]. Type of test: functional.

Test [3] deals with T3, High affinity choline transporter 1 (Homo sapiens, UniProt Q9GZV3).
T3 sequence (Q9GZV3 whole entry): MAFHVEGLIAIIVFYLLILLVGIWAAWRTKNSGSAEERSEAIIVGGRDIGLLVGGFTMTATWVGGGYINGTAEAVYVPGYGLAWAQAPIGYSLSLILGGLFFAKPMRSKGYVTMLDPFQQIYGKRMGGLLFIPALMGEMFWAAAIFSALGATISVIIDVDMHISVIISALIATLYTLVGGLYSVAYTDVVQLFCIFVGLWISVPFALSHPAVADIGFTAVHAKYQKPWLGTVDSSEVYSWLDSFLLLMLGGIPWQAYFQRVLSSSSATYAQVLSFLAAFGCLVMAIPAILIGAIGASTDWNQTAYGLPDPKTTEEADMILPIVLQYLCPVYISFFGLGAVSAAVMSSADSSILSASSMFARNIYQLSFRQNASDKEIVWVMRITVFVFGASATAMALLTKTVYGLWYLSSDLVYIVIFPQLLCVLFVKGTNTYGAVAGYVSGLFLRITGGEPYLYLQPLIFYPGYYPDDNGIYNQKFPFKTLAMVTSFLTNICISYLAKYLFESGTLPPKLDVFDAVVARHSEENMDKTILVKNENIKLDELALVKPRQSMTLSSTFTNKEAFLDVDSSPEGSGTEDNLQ
In words: CHT inhibitors, dose response, cell-based, 10-point CRC, membrane potential dye (AID 588401).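 Further: membrane potential dye fluorescence of choline-evoked depolarization via CHT.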 In kind it is functional.

Test [4] has as its target T3, High affinity choline transporter 1. In words: CHT inhibitors, dose response, cell-based, 5-point CRC, membrane potential dye (AID 504840). In kind it is functional.
The test system of test [5] is Vero. Briefly: Vero cell cytotoxicity, cytotoxicity control for flavivirus capping enzyme inhibitors (AID 588742). In kind it is functional. The settings on record: Chlorocebus sabaeus.
Test [6] is described as follows: HeLa cell cytotoxicity, dose response, cytotoxicity control for MgcRacGAP inhibitor project (AID 624300). Type of test: functional.
In test [7] the target is Keap1/Nrf2 (Homo sapiens, UniProt Q14145). Briefly: Keap1-Nrf2 protein-protein interaction inhibitors, dose response, biochemical, fluorescence polarization, cherry-picked samples (AID 588683). (In general: Polarisation of emitted light reports the rotation of a fluorescent probe.)
Test [8] has as its target T4, Polyadenylate-binding protein 1 (Homo sapiens, UniProt P11940). Briefly: PABP1 MLLE–PAM2 interaction inhibitors, dose response, miRNA deadenylation inhibitor project, biochemical, fluorescence polarization, Cy5-PAM2 peptide, secondary (AID 602260). The settings on record: read-out: IC50_Mean. In kind it is functional.
The target in test [9] is T5, Histone-lysine N-methyltransferase NSD2 (Homo sapiens, UniProt O96028).
T5 sequence (O96028 whole entry): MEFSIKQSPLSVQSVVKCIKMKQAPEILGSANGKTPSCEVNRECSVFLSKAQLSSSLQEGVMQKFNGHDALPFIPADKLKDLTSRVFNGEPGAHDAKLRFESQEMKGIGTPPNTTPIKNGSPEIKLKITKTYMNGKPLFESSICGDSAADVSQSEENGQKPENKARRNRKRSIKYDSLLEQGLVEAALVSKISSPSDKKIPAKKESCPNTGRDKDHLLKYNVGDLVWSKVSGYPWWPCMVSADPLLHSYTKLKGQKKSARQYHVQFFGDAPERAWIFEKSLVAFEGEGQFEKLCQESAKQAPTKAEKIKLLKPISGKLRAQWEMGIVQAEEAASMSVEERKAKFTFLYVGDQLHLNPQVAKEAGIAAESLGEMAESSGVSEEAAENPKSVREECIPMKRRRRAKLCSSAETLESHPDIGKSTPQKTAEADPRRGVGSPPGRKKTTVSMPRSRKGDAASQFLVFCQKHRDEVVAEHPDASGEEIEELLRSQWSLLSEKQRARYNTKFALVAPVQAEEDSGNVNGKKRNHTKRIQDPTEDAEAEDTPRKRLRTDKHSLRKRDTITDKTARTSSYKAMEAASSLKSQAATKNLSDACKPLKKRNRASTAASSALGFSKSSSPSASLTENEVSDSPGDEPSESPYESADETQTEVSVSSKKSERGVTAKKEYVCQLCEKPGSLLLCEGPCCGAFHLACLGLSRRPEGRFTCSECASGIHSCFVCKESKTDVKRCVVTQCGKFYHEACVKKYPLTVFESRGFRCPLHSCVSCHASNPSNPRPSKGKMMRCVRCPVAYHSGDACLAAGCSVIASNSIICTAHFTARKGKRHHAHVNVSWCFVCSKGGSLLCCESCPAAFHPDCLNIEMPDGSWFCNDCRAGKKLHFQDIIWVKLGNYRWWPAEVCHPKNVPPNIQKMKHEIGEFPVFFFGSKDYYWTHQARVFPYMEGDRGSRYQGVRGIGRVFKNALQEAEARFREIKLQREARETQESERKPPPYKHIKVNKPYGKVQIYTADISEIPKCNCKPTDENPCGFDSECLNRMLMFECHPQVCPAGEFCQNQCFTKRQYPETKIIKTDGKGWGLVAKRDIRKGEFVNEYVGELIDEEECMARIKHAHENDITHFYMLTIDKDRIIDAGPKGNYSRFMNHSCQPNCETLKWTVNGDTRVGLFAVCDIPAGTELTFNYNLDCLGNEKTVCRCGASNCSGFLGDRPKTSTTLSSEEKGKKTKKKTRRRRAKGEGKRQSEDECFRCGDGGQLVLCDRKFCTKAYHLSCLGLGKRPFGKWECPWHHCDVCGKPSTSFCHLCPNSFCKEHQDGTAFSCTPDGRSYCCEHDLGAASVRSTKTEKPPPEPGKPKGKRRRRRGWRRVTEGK
Type of test: biochemical.

In test [10] the target is T4, Polyadenylate-binding protein 1. In words: PABP1 MLLE–PAM2 binding inhibitor potency, dose response, biochemical, fluorescence polarization, FITC-PAM2 peptide (AID 602259). Type of test: functional. The settings on record: read-out: IC50_Mean.
For test [11], the target named is Genome polyprotein (dengue virus type 2, UniProt P29990). Briefly: Dengue-2 NS5 methyltransferase inhibitors, primary screen, biochemical, confirmation dose response (AID 588689). In kind it is functional.
Test [12] deals with Albumin (Bos taurus, UniProt P02769). In words: Counterscreen for inhibitors of T-cell receptor (TCR)-CD3 interaction: Fluorescence-based biochemical high throughput dose response assay to identify inhibitors of T-cell receptor (TCR)-CD3 interaction using a TAMRA-labeled BSA probe. In kind it is functional. For orientation: The purpose of a counterscreen is to sort out artefacts and off-target activity.

A short description of test [13]: inhibitors of firefly luciferase expression or activity, dose response, H4 neuroglioma cells, luminescence (AID 1990). In kind it is functional, cell-based.
Test [14] is described as follows: Luminescence Cell-Based Dose Response HTS to Identify Inhibitors of 5'UTR Stem-Loop Driven Prion Protein mRNA Translation in H4 Neuroglioblastoma Cells. [Related pubchem assays: 1827 (Project Summary), 1813 (Primary HTS)]. Type of test: functional.
A short description of test [15]: A Cell Based Secondary Assay To Explore Cytotoxicity of Compounds that Sensitize Mycobacterium Tuberculosis to Beta-Lactam Antibiotics. In kind it is functional.
Test [16] is described as follows: cytotoxicity in HEK-293T NF-kB-Luc cells, dose response, cytotoxicity control for B/T-cell NF-kB inhibitor project, cell-based, uHTS hits (AID 489019).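 Further: IC50 reflects cytotoxicity as loss of cell viability.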 Type of test: functional.
Test [17] is described as follows: inhibitors of SNCA 5'UTR-driven reporter translation, confirmation, H4 neuroglioma cells, luminescence (AID 1988). Type of test: functional, cell-based.
Test [18] concerns Jurkat. In words: antigen receptor-induced NF-kB inhibitors, dose response, Jurkat, luciferase reporter, luminescence, B- and T-cell (AID 489004).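 Further: NF-kB luciferase reporter Jurkat cells stimulated with PMA plus ionomycin.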 The settings on record: Homo sapiens. Type of test: functional, cell-based. (In a reporter assay the amount or activity of a reporter protein is the signal.)
Test [19] in a line: HEK293T cell cytotoxicity, dose response, cytotoxicity control for HIV Vif inhibitor project, cherry-picks (AID 652208). Type of test: functional, cell-based.
For test [20], the system named is HEK293. In words: inhibitors of LMP1-driven NF-kB reporter, dose response, cell-based, HEK293, luciferase, cherry-pick (AID 588343). In kind it is functional. The settings on record: Homo sapiens.

Each structure is given as a SMILES string. Calls of active or inactive are those of the source.

T4 sequence (P11940 whole entry): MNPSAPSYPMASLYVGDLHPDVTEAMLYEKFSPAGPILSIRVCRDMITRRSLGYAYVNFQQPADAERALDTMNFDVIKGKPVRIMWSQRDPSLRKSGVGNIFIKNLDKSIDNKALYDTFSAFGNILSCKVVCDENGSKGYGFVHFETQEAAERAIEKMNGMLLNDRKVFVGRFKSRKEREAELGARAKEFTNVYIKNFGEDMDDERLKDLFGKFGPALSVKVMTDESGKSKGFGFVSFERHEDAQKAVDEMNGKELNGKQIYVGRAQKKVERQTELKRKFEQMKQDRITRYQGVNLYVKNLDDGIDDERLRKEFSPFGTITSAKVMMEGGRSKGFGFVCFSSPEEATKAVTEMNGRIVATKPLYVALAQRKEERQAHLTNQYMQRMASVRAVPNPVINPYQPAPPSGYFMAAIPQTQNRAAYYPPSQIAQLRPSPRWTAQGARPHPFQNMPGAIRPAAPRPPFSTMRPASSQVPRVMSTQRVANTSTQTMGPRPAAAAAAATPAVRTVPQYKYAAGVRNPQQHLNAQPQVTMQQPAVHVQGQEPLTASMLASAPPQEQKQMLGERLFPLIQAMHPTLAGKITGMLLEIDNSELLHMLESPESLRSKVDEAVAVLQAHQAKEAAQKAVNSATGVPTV
Sequence of Genome polyprotein (P29990 2492-3391 limits assumed): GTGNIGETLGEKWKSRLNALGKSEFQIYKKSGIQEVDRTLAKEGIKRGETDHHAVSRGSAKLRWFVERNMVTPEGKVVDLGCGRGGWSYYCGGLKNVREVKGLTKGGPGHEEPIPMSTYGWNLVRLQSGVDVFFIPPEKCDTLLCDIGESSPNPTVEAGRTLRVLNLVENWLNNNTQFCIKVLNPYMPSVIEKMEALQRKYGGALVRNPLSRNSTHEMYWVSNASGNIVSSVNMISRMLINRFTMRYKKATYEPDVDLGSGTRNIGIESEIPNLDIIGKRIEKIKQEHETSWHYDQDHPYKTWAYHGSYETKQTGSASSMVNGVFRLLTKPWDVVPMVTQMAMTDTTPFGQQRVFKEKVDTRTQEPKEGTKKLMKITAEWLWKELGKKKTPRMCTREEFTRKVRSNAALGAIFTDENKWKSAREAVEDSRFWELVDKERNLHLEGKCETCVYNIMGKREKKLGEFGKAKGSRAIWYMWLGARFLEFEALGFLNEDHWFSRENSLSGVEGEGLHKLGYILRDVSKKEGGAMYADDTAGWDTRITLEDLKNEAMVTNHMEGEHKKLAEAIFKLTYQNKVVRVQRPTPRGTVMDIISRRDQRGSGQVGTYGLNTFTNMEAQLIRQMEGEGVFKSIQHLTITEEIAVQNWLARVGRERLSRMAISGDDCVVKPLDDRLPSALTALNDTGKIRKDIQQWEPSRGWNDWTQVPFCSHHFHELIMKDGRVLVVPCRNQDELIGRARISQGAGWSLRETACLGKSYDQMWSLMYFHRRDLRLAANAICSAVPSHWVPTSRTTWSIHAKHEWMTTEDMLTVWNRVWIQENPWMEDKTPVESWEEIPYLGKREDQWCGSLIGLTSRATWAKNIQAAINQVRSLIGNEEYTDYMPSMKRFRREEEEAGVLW
Sequence of Albumin (P02769 whole entry): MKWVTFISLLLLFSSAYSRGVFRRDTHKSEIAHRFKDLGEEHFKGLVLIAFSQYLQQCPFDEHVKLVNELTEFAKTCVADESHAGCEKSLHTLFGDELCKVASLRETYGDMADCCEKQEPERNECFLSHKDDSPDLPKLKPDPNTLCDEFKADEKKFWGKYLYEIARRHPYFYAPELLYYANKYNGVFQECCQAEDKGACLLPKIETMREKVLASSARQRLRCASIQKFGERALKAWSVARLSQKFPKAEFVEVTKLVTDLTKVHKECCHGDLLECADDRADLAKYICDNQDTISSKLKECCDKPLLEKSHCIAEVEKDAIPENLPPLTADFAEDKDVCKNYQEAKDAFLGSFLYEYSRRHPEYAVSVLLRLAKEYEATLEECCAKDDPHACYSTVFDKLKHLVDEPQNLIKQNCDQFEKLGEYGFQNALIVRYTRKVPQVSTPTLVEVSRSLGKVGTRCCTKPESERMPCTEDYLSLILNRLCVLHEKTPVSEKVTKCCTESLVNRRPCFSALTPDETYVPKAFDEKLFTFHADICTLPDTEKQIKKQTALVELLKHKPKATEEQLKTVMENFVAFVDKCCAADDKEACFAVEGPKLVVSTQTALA
Sequence of Keap1/Nrf2 (Q16236 whole entry): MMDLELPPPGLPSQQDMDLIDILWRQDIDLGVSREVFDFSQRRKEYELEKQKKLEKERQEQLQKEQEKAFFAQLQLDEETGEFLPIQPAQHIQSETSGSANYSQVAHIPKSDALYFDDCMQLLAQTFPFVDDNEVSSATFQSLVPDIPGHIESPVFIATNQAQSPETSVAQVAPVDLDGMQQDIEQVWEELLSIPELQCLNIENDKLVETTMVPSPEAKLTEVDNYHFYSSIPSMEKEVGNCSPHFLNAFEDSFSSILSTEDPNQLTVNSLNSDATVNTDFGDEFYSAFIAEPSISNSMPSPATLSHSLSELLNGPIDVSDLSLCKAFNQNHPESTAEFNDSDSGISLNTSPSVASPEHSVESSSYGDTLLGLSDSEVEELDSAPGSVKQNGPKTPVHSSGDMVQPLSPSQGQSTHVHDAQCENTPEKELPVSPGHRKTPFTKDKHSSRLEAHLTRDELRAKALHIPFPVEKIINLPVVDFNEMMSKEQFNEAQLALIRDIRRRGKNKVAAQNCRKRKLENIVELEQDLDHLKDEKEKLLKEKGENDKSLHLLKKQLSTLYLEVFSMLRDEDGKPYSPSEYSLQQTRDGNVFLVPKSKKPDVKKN
Sequence of Keap1/Nrf2 (Q14145 whole entry): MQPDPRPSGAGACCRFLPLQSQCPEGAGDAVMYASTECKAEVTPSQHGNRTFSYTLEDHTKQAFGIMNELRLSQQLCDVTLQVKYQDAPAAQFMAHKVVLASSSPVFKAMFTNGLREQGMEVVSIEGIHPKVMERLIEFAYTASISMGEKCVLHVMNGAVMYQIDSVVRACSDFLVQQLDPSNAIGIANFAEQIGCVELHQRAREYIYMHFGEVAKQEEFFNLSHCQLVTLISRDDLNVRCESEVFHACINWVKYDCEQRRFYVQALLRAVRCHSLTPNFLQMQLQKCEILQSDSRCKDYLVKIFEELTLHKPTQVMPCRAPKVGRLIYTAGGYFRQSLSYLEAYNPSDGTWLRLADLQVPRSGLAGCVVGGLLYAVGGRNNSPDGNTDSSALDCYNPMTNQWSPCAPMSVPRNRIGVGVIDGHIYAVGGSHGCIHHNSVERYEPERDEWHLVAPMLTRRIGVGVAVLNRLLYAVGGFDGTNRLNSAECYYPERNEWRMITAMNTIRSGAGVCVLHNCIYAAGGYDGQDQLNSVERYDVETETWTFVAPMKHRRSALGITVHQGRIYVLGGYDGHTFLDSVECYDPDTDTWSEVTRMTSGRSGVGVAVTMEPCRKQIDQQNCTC

Take `O=c1c2ccccc2nc(/C=C/c2ccc(F)cc2)n1Cc1ccccc1`: the IC50 in test [1] and in [2] was > 80 µM (inactive) throughout.

In the case of `CC1=NOC(=O)/C1=C/c1ccc(O)c(Cl)c1`, the results for the IC50 in test [3] and in test [4] were 3.57 µM (active) and 6.99 µM (active), respectively.

A word on the CC50: it is the concentration that lowers cell viability or growth by half. For orientation: AC50 means the concentration at which the activity in the assay is half-maximal. Consider `O=C1C(Cl)=C(N2CCN(CCO)CC2)C(=O)c2c(O)ccc(O)c21`, for which the CC50 is 2.85 µM (active) in test [5] and 12.9 µM (active) in test [6]. The AC50 in [7] is > 52 µM (inactive); in [9], 4.44 µM (active). In addition, the IC50 in test [8] is > 66 µM (inactive); in test [10], 60.6 µM (inactive); in test [11], 4.58 µM (active); in [12], 29.1 µM (inactive).

With `COc1ccc(Cn2c(/C=C/c3cccnc3)nc3ccccc3c2=O)cc1`, the IC50 in [1] and in test [2] was > 80 µM (inactive) each time.

As for `O=C(Nc1cccc(C(F)(F)F)c1)c1cccc(NC(=O)c2ccccn2)c1`, the IC50 in test [1] and in test [2] was > 80 µM (inactive) in each case.

The term EC50 denotes the concentration needed to bring the measured effect to its halfway point. Regarding `CCc1cc2c(Sc3nc4ccccc4s3)ncnc2s1`, the EC50 in [13] is > 120 µM (not active); in test [14], 16.3 µM (active); in [17], 3.87 µM (active). The 50% cytotoxic concentration (CC50) in test [15] is 30.2 µM (active). Also, the results for the IC50 in [16] and in test [18] were > 80 µM (inactive) and < 0.16 µM (active), respectively. For the same molecule, the values for the AC50 in [19] and in [20] were > 52 µM (inactive) and 4.9 µM (active), respectively.

Values taken from ChEMBL document CHEMBL1201862, “PubChem BioAssay data set” (2004).
